We go through four molecules from patent US20080139493A1, “Bi- or Tetra-Guanidino-Biphenyl Compounds as Small Molecule Carriers” (priority 2004, published 2008).

In experiment [1] the test system is Human osteosarcoma cells (U2OS). As to the kind of experiment: Uptake and sub-cellular localization by confocal microscopy. Type of experiment: cell-based. The following applies: 10 μM, 10 minutes incubation, no fixation. The protocol:
In order to observe the ability of the di-guanidine and tetra-guanidine compounds to transport small molecules, they were coupled to FITC, which emits light at 514 nm after laser excitation at 492 nm. Human osteosarcoma cells (U2OS) were cultured on glass coverslips and incubated for 10 minutes with each compound to a final concentration of 10 μM. They were compared to FITC conjugated to TAT and FITC alone. After incubation, cells were rinsed in PBS and mounted, without fixation, onto slides and visualized by confocal microscopy. […] Cells were visualized under higher magnification (63×), to assess sub-cellular localization of the FITC.

For another experiment, the system named is U2OS cells. As to the kind of experiment: Delivery of FITC, FACS analysis of live cells. Type of experiment: cell-based, human. The following applies: 10 µM, 15 minutes. The method, then:
The efficiency of delivery of FITC by these guanidine carriers was tested by FACS analysis. U2OS cells were treated with at a concentration of 10 µM with each of the compounds indicated for 15 minutes, and then harvested by trypsinization, and washed in PBS. The live cells were then subjected to FACS analysis.
In general terms: A flow cytometer gives signals particle by particle.

The test system of experiment [2] is CD3+ cells from peripheral blood mononuclear cells. The experiment can be described thus: Delivery of FITC to primary suspension cells, FACS analysis. The class given is cell-based. To be noted: primary human CD3+ cells, 10 µM, 15 minutes. The protocol:
To determine whether SMCs deliver small molecules to primary human cells, CD3+ cells were isolated by MACS separation from freshly harvested peripheral blood mononuclear cells. This purified cell population was treated with 10 µM of each compound for 15 minutes. Cells were then washed in PBS and analyzed by FACS.

In experiment [3] the test system is NIH3T3 fibroblasts. As to the kind of experiment: S-phase assay (cellular DNA synthesis, BrdU incorporation). Type of experiment: cell-based, mouse. The protocol: (§1) A) NIH3T3 fibroblasts were incubated for one hour with 10 μM recombinant His6-Geminin or 10 μM Geminin-SMC conjugate. Cells were fixed, permeabilised and stained with a polyclonal rabbit anti-Geminin primary, a FITC-conjugated anti-rabbit secondary and counterstained with DAPI. […] B) NIH3T3 fibroblasts were driven into quiescence by density-dependent growth arrest and after 5 days were released back into the cell cycle by subculturing into fresh growth medium. 8 hours after release from quiescence 10 μM of Geminin-SMC was added to the cells. At 21 hours following release cells were pulse-labelled for one hour with 50 μM BrdU. Subsequently cells were fixed, permeabilised and stained with FITC-conjugated anti-BrdU and counterstained with propidium iodide. In a control population 68% of cells were able to re-enter the cell cycle following release whilst in the presence of Geminin-SMC replication dropped by 47% respectively.
Essentially the system is set up as follows: Mouse or human fibroblasts are arrested in quiescence (G0) by contact inhibition.
The quiescent fibroblasts are then subcultured at lower density to release fibroblasts from G0. Re-entry into the DNA synthesis phase (S phase) occurs 21 hours after the release. Pre-replicative complexes (pre-RCs) essential for unwinding of the DNA helix prior to DNA synthesis are assembled at replication origins 16-18 hrs after the release from G0.
One sample of cells is untreated and the other is treated by exposure to an SMC-conjugate according to the present invention. Treatment takes place before pre-RC assembly, preferably at 5-10 hours after release from G0.
The ability of cells to start S phase is monitored with a BrdU pulse at 21 hours. BrdU becomes incorporated into DNA during DNA synthesis and is thus a marker for entry into S phase. BrdU incorporation is then assayed and treated cells are compared with non-treated cells.
For synchronisation in G0, NIH3T3 fibroblasts are seeded at high density and driven into density-dependent growth arrest. […]
DNA synthesis is monitored by pulse labelling cells 21 h after release from G0 for 1 h with 50 μM BrdU. […]
The percentage of cells undergoing DNA replication is determined from images obtained by confocal fluorescence microscopy on a Leica TCS SP confocal microscope. […]
Plasmids expressing […] are microinjected into the nuclei of NIH3T3 fibroblasts at the treatment time 8 hours after release from density-dependent growth arrest in G0. The ability of cells to initiate DNA replication was assessed by pulse labelling cells 19 hours after release from G0 for 1 hour with bromodeoxyuridine (BrdU). Expression of E1̂E4 protein and incorporation of BrdU was monitored by confocal immunofluorescence microscopy. […]
For orientation: Incorporation of labelled thymidine or its analogues reports DNA synthesis.

For experiment [4], the system named is NIH3T3 fibroblasts. As to the kind of experiment: Uptake of Geminin-SMC conjugate, anti-Geminin immunofluorescence. The class given is cell-based, mouse. To be noted: 10 μM, one hour. The method, then: as §1

As for `N=C(N)NCCOc1c(CNC(=S)Nc2ccc3c(c2)C(=O)OC32c3ccc(O)cc3Oc3cc(O)ccc32)ccc(-c2ccccc2)c1OCCNC(=N)N` [di-guanidine-FITC, 2-[2,3-bis(2-guanidino-ethyloxy)-biphenyl-4-ylmethyl]-thioureido-fluorescein], the “sub-cellular localization of the FITC at higher magnification (63×)” value in experiment [1] was “both nuclear and cytoplasmic fluorescence”. The “cells fluorescent above the background auto-fluorescence” value with U2OS cells was 80%. Besides, the cells fluorescent in experiment [2] is listed as 88%.

Consider `N=C(N)NCCOc1cccc(-c2ccc(CNC(=S)Nc3ccc4c(c3)C(=O)OC43c4ccc(O)cc4Oc4cc(O)ccc43)c(OCCNC(=N)N)c2OCCNC(=N)N)c1OCCNC(=N)N` [tetra-guanidine-FITC, [2,3,2′,3′-Tetra(2-guanidino-ethyloxy)-biphenyl-4-ylmethyl]-thioureido-fluorescein], for which the “sub-cellular localization of the FITC at higher magnification (63×)” value in experiment [1] was “intense nuclear fluorescence”. Further, in the experiment on U2OS cells, the “cells fluorescent above the background auto-fluorescence” value is given as 80%. In experiment [2], the cells fluorescent was 62%.

B1: Geminin-SMC: conjugate of a compound of formula Ic with the pre-RC assembly repressor protein Geminin (209 aa) (conjugate, UniProt O75496 1-209, looked up)
chain: MNPSMKQKQEEIKENIKNSSVPRRTLKMIQPSASGSLVGRENELSAGLSKRKHRNDHLTSTTSSPGVIVPESSENKNLGGVTQESFDLMIKENPSSQYWKEVAEKRRKALYEALKENEKLHKEIEQKDNEIARLKKENKELAEVAEHVQYMAELIERLNGEPLDNFESLDNQEFDSEEETVEDSLVEDSEIGTCAEGTVSSSTDAKPCI
modifications: full-length conjugated to SMC compound of formula Ic
Turning to B1, in the experiment on NIH3T3 fibroblasts [3] (10 μM added 8 hours after release from quiescence, BrdU pulse at 21 hours, control population 68% re-entered cell cycle), the “drop of replication (BrdU incorporation)” value is 47%. Besides, the “number of cells entering S phase” value in the experiment on NIH3T3 fibroblasts [3] (10 fM to 10 μM, treatment 8 hours after G0 release) is given as “dramatic reduction”. Further, the “DNA synthesis as monitored by S-phase assay” value in the experiment with NIH3T3 fibroblasts [3] (treatment 8 hours after G0 release, BrdU pulse at 21 hours, concentration range per example (10 fM to 30 μM)) is recorded as “inhibits DNA synthesis”. Moreover, the “uptake of SMC-conjugate into the cells” value with NIH3T3 fibroblasts [3] (treatment 8 hours after G0 release, concentration range per example (10 fM to 30 μM)) is “efficiently taken into the cells”. In the experiment with NIH3T3 fibroblasts [4], the “FITC staining (anti-Geminin) within the cells” value is “strong FITC staining”.

B2: His6-Geminin: recombinant His6-Geminin, unconjugated form of Geminin (protein, UniProt O75496 1-209, looked up)
Geminin: B1 chain
modifications: His6 tag
Take B2: in the experiment on NIH3T3 fibroblasts [4], the “FITC staining (anti-Geminin) within the cells” value is on record as “no FITC staining”.
